Experimental findings from US20050090402A1, “Use of defined copolymers as adjuvants and agents in the agrotechnical domain” (priority 2001, published 2005) are described below.

What all share (format): in vivo
Details in all cases: bentazone 0.125 kg/ha, no adjuvant, 100 = complete destruction, 0 = no damage

The subject of series [1] is soybeans (Glycine max; GLXMA). Description: Herbicidal efficacy of bentazone tank mixes, greenhouse post-emergence, soybeans. On the procedure:
(§1) The copolymers shown in Table 1 were applied by the tank mix method together with Basagran (480 g/l bentazone). The application rate per ha was 0.125 kg of bentazone and 2, 1.0 and 0.5 kg of a.i./ha copolymer or comparative surfactant Wettol LF 700 (alcohol alkoxylate). The herbicidal effect was assessed in a greenhouse experiment. The test plants used were soybeans (Glycine max; GLXMA), Chinese hemp (Abutilon theophrasti; ABUTH), white goosefoot (Chenopodium album; CHEAL) and ladysthumb (Polygonum persicaria; POLPE). These plants were either sown separately for each species or first grown separately as seedlings and transplanted into the experimental containers a few days before the treatment. The experimental containers used were plastic pots containing loamy sand and approximately 3.0% of humus as substrate. […] The application rate for the post-emergence treatment was 0.125 kg a.i./ha bentazone and 2.0, 1.0 or 0.5 kg a.i./ha copolymer or comparative surfactant.
(§2) The test period extended over 2 to 4 weeks. During this time, the plant species were kept specifically at night-time temperatures above 14° C. and day-time temperatures between 20 and 31° C., tended, and their response to the individual treatments was evaluated.
(§3) Evaluation was done using a scale from 0 to 100. […]

Series [2] deals with Chinese hemp (Abutilon theophrasti; ABUTH). Briefly: Herbicidal efficacy of bentazone tank mixes, greenhouse post-emergence, Chinese hemp. The method, then:
as §1, §2, §3

In series [3] the test system is ladysthumb (Polygonum persicaria; POLPE). Description: Herbicidal efficacy of bentazone tank mixes, greenhouse post-emergence, ladysthumb. The method, then:
as §1, §2, §3

Series [4] deals with white goosefoot (Chenopodium album; CHEAL). Briefly: Herbicidal efficacy of bentazone tank mixes, greenhouse post-emergence, white goosefoot. The method, then: as §1, §2, §3

Regarding `CC(C)N1C(=O)c2ccccc2NS1(=O)=O` [Bentazone, bentazone], the “herbicidal effect GLXMA (scale 0 to 100)” value in series [1] was 0. The “herbicidal effect ABUTH (scale 0 to 100)” value in series [2] is recorded as 64. Further, the “herbicidal effect POLPE (scale 0 to 100)” value in series [3] turned out to be 86. For the same compound, in series [4], the “herbicidal effect CHEAL (scale 0 to 100)” value stood at 9.
